The source of these data is PubChem BioAssay (NCI).

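Cultured in 96-well plates, cells were exposed to test compound for 48 hours across five concentrations. The concentration for 50% growth inhibition is given as GI50. TGI denotes the concentration required for complete inhibition of growth.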 Where only a bound is given, the exact number is not on record here.

Among the test systems are SF-268 CNS; U251 CNS; OVCAR-4 ovarian; HCT-116 colon; CCRF-CEM leukemia; SF-539 CNS; MDA-N; NCI-H226 lung; K-562 leukemia; XF 498 CNS; DLD-1 colon; DMS 114 small cell lung; SNB-78 CNS.
Experiment in all cases: growth of human tumour cells (NCI), 48 h

Regarding `O=C1CCCC2C3CC(CN12)C1CCCCN1C3` (stereo unspecified), the TGI in the assay on SF-268 CNS, in the assay on U251 CNS, in the assay on OVCAR-4 ovarian, in the assay with HCT-116 colon, in the assay with CCRF-CEM leukemia and in the assay on SF-539 CNS was more than 100 µM in each case. In addition, the TGI with MDA-N and with NCI-H226 lung was more than 100 µM in each case.

As to `C=CCSSCC=C`, the TGI in the assay on SF-268 CNS was more than 90.5 µM; in the assay with U251 CNS, more than 100 µM; in the assay with OVCAR-4 ovarian it was more than 100 µM; in the assay with HCT-116 colon, more than 100 µM; in the assay with CCRF-CEM leukemia, more than 100 µM; in the assay on K-562 leukemia it was more than 100 µM. Also, the TGI in the assay on SF-539 CNS was more than 71.9 µM; with MDA-N, more than 80.2 µM; in the assay on NCI-H226 lung, more than 92.6 µM.

For the molecule `COc1c(OC/C=C(\C)CCC=C(C)C)ccc2ccc(=O)oc12`, the TGI with SF-268 CNS, in the assay with U251 CNS, in the assay on OVCAR-4 ovarian, with HCT-116 colon, in the assay with CCRF-CEM leukemia and in the assay on K-562 leukemia was more than 100 µM throughout. Besides, the TGI in the assay with SF-539 CNS and with MDA-N was more than 100 µM in each case.

On to `O=C1OCc2cc3cc4c(cc3c(-c3ccc5c(c3)OCO5)c21)OCO4` (tested in a mixture with another compound), for which the TGI with U251 CNS is 43.7 µM; in the assay with OVCAR-4 ovarian it was more than 100 µM; in the assay with HCT-116 colon, 13.7 µM; in the assay on CCRF-CEM leukemia it was more than 100 µM; in the assay on K-562 leukemia, more than 100 µM; in the assay on MDA-N it was 19.2 µM. The molecule also returned a TGI in the assay on NCI-H226 lung of 29.3 µM.

Regarding `CN1CC(CNC(=O)OCc2ccccc2)CC2c3cccc4c3c(cn4C)CC21` (stereo unspecified), the GI50 with SF-268 CNS was 3.48 µM; in the assay with U251 CNS it was 1.46 µM; in the assay on HCT-116 colon it was 1.72 µM; with CCRF-CEM leukemia, 2.48 µM; in the assay with K-562 leukemia, 1.69 µM; in the assay on SF-539 CNS, 1.64 µM. In addition, in the assay on NCI-H226 lung, the GI50 was 2.82 µM. For the same molecule, the TGI was determined as 13.4 µM in the assay on SF-268 CNS; 2.91 µM in the assay with U251 CNS; 4.18 µM in the assay with HCT-116 colon; 7.81 µM in the assay with CCRF-CEM leukemia; 4.44 µM in the assay on K-562 leukemia; 3.24 µM in the assay on SF-539 CNS. The molecule also gave a TGI with NCI-H226 lung of 9.06 µM.

Regarding `c1ccc(C[N+]23CN4CN(CN(C4)C2)C3)cc1`, the TGI in the assay on SF-268 CNS was 85.8 µM; in the assay with U251 CNS it was 35.6 µM; in the assay with OVCAR-4 ovarian it was more than 100 µM; with HCT-116 colon, 85.3 µM; in the assay with CCRF-CEM leukemia, 32.9 µM; in the assay on K-562 leukemia it was 86.2 µM. The TGI was 51.9 µM in the assay with SF-539 CNS, more than 100 µM with MDA-N and more than 100 µM in the assay on NCI-H226 lung.

On to `O=C1OC2CC=CC1C2` (stereo unspecified), for which the TGI in the assay on SF-268 CNS, in the assay on XF 498 CNS, with DLD-1 colon, in the assay on U251 CNS, in the assay with OVCAR-4 ovarian and in the assay on DMS 114 small cell lung was more than 100 µM in each case. For the same molecule, the TGI in the assay on HCT-116 colon, in the assay on CCRF-CEM leukemia, in the assay on K-562 leukemia, in the assay with SF-539 CNS, in the assay on SNB-78 CNS and in the assay with NCI-H226 lung was more than 100 µM throughout.

Regarding `COc1cc(/C=C/C(=O)CC(=O)/C=C/c2ccc(O)c(OC)c2)ccc1O`, the TGI in the assay on SF-268 CNS is 36.1 µM; in the assay on U251 CNS it was 16.5 µM; in the assay with OVCAR-4 ovarian, 36.6 µM; in the assay on HCT-116 colon it was 9.36 µM; with CCRF-CEM leukemia, 15.6 µM; with K-562 leukemia, more than 55.6 µM. For the same molecule, the results for the TGI in the assay with SF-539 CNS and in the assay with NCI-H226 lung were 8.87 µM and 53.7 µM, respectively.

Consider `O=C(/C=C/c1ccccc1)N1CCCCC1`, for which the TGI in the assay on SF-268 CNS, in the assay on U251 CNS, in the assay on OVCAR-4 ovarian, in the assay on HCT-116 colon, in the assay on CCRF-CEM leukemia and in the assay on K-562 leukemia was more than 100 µM throughout. Besides, the TGI in the assay with SF-539 CNS, in the assay with MDA-N and with NCI-H226 lung was more than 100 µM each time.

Turning to `Br/C(=N\Nc1nn[nH]n1)c1ccncc1`, the TGI in the assay with SF-268 CNS, with U251 CNS, in the assay with OVCAR-4 ovarian, in the assay with HCT-116 colon, in the assay with CCRF-CEM leukemia and in the assay with K-562 leukemia was more than 100 µM throughout. Moreover, the TGI with SF-539 CNS, in the assay with MDA-N and with NCI-H226 lung was more than 100 µM each time.

`C=C1C(=O)OC2CC1CCC1(C)OC1CCC(C)=CCCC2(C)O` (stereo unspecified): the TGI stood at 14.2 µM in the assay with SF-268 CNS; 8.47 µM in the assay on XF 498 CNS; 6.12 µM with DLD-1 colon; 29.2 µM in the assay with U251 CNS; 11.9 µM with OVCAR-4 ovarian; 9.27 µM in the assay on DMS 114 small cell lung. Further, the TGI with HCT-116 colon worked out at 8.7 µM; with CCRF-CEM leukemia it was 4.56 µM; in the assay on K-562 leukemia, 13.7 µM; with SF-539 CNS, 10.5 µM; in the assay on SNB-78 CNS, 26.3 µM; in the assay on NCI-H226 lung it was 9.17 µM.

`O=C(COc1ccc(Cl)c(Cl)c1)N(Cc1ccccc1)Cc1ccc[n+](Cc2ccc(Cl)cc2S(=O)(=O)F)c1`: the TGI in the assay on SF-268 CNS, in the assay on U251 CNS, in the assay with OVCAR-4 ovarian, in the assay on HCT-116 colon, in the assay with K-562 leukemia and with SF-539 CNS was more than 100 µM each time. In addition, the TGI with NCI-H226 lung was more than 100 µM.

As to `Cc1cc(C)nc(SCCc2cccc[n+]2C)n1`, the TGI in the assay on SF-268 CNS, in the assay on U251 CNS, in the assay with OVCAR-4 ovarian, in the assay on HCT-116 colon, in the assay on CCRF-CEM leukemia and with K-562 leukemia was more than 100 µM each time. For the same molecule, the TGI with MDA-N and in the assay on NCI-H226 lung was more than 100 µM throughout.

With `CCCC(=O)O.CCCC(=O)O.CCCC(=O)O.CCCC(=O)O.[Rh].[Rh]`, the GI50 in the assay on HCT-116 colon was 0.0198 µM; in the assay with CCRF-CEM leukemia it was 0.0277 µM; with K-562 leukemia, 0.026 µM. Further, the figures for the TGI in the assay with HCT-116 colon, in the assay with CCRF-CEM leukemia and in the assay on K-562 leukemia were 0.0433 µM, 1.08 µM and 0.273 µM, respectively.

In the case of `CC(=O)NNC(=O)C1CCCCN1` (stereo unspecified), the TGI in the assay with SF-268 CNS, in the assay on U251 CNS, with OVCAR-4 ovarian, with HCT-116 colon, in the assay on CCRF-CEM leukemia and in the assay on K-562 leukemia was more than 100 µM each time. In addition, the TGI with SF-539 CNS, in the assay on MDA-N and with NCI-H226 lung was more than 100 µM each time.

In the case of `O=C(Oc1ccc(Cl)cc1[N+](=O)[O-])c1ccccc1`, the TGI in the assay on SF-268 CNS, with XF 498 CNS, with DLD-1 colon, in the assay on U251 CNS, with OVCAR-4 ovarian and in the assay with DMS 114 small cell lung was more than 100 µM each time. Moreover, the TGI with HCT-116 colon, in the assay on CCRF-CEM leukemia, in the assay on K-562 leukemia, in the assay with SF-539 CNS, with SNB-78 CNS and in the assay on NCI-H226 lung was more than 100 µM throughout.

With `SC1CCCN(Cc2ccccc2)C1` (stereo unspecified), the TGI was more than 100 µM in the assay on SF-268 CNS; more than 100 µM in the assay with U251 CNS; more than 100 µM in the assay with OVCAR-4 ovarian; more than 100 µM in the assay on HCT-116 colon; 60.6 µM in the assay with K-562 leukemia; more than 100 µM in the assay with SF-539 CNS. Besides, the TGI in the assay on MDA-N and in the assay on NCI-H226 lung was more than 100 µM throughout.

Turning to `COc1ccc(OC)c(CC(C)N)c1` (stereo unspecified), the TGI in the assay on SF-268 CNS, in the assay on XF 498 CNS, in the assay with DLD-1 colon, with U251 CNS, with OVCAR-4 ovarian and in the assay with DMS 114 small cell lung was more than 100 µM throughout. For the same molecule, the TGI in the assay on HCT-116 colon, in the assay on CCRF-CEM leukemia, with K-562 leukemia, in the assay on SF-539 CNS and with NCI-H226 lung was more than 100 µM each time.
